Patent US9200017B2, “Multimodal imaging of fibrin” (The General Hospital Corporation, priority 2009, dated 2015)

Target: T1, fibrin (clotted fibrinogen from human plasma) (Homo sapiens, UniProt P02671+P02675+P02679)
T1 construct: thrombin cleaves fibrinopeptides on fibrinogen resulting in an end-to-end polymerization to give the polymer fibrin; Fibrinogen from human plasma (Calbiochem); purchased Calbiochem; host or cells: human plasma
T1 sequence (P02671 36-629 isoform P02671-2 limits assumed): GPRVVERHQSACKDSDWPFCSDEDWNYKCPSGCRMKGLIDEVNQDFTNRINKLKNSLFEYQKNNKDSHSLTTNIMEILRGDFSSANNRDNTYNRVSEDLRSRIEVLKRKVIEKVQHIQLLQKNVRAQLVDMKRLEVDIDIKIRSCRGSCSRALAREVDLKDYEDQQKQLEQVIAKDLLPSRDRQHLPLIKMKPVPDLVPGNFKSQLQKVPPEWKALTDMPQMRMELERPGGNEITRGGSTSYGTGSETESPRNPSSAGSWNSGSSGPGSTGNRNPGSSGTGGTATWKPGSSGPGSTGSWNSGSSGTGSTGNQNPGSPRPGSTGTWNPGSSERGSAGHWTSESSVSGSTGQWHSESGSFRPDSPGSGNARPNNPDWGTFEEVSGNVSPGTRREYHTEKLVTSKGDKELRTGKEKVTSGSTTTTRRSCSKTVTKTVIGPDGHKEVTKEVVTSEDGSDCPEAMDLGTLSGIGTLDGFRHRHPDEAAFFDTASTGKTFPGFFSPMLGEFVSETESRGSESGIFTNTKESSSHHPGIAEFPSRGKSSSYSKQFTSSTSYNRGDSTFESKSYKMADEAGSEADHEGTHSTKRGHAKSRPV
T1 sequence (P02675 45-491 limits assumed): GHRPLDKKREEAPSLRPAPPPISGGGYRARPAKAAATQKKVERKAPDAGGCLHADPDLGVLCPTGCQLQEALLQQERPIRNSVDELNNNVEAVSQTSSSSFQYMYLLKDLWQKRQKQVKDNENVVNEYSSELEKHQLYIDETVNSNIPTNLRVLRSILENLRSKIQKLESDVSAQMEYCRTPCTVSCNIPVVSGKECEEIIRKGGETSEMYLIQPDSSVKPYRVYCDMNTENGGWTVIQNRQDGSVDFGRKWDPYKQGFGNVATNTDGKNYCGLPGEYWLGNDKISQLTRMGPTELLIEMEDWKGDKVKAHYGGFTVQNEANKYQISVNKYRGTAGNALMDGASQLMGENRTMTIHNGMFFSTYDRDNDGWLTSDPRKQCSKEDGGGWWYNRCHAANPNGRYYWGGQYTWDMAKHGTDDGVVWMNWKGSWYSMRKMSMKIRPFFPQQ
T1 sequence (P02679 27-437 isoform P02679-2 limits assumed): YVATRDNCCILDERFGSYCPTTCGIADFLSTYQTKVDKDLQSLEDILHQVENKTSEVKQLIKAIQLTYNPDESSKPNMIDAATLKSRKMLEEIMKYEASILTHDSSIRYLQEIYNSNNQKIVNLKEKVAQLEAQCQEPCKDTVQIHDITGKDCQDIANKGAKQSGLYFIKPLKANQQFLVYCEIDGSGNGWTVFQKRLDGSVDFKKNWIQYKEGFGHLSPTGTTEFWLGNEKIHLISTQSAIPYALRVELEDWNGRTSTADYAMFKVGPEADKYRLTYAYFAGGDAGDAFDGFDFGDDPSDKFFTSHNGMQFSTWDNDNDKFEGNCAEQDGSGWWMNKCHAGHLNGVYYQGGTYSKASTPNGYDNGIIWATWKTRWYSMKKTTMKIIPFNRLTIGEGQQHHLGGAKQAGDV
Assay: Fibrin binding of Cu-64 labeled probes, dried fibrin plate, percentage bound
Settings: dried fibrin wells, 37° C., unbound probe by well counting
Experimental: Fibrinogen from human plasma (Calbiochem) was dialyzed against 50 mM Tris, pH 7.4, 150 mM sodium chloride, 5 mM sodium citrate (TBS·citrate). The fibrinogen concentration was adjusted to 5 mg/mL and CaCl2 was added (7 mM). The fibrinogen solution (50 μL) was dispensed into the wells of a 96-well polystyrene microplate (Immulon-II). A solution (50 μL) of human thrombin (2 U/mL) in TBS was added to each well to clot the fibrinogen. The plates were incubated at 37° C. and evaporated to dryness overnight. The plates were sealed with tape and stored at −20° C. until use. The wells with dried fibrin were incubated at 37° C. with known concentrations of the probes. The concentration of the unbound probe was determined by well counting. The concentration of the bound probe=[total]−[unbound]. The percentage bound probe was given by [(bound probe)/total probe)]×100.

## Gd3-EP-2104R-Cu [Compound 21]
  % bound (percentage bound probe): 98.7%
